Experimental findings from ChEMBL document CHEMBL1144367, “QSAR for anti-RNA-virus activity, synthesis, and assay of anti-RSV carbonucleosides given a unified representation of spectral moments, quadratic, and topologic indices” (2005) are described below.

Converted amounts (≈) assume the structure as drawn. Where only a bound is given, the exact number is not on record here.

Type in all cases: functional
Conditions in all cases: Homo sapiens

For experiment [1], the system named is HeLa. Description: Minimum cytotoxicity concentration to HeLa cell line was determined.
Experiment [2] deals with HeLa. Nature of the experiment: Minimum inhibitory concentration against coxsackie virus B4 was determined.
Experiment [3] has as its system HeLa. Nature of the experiment: Minimum inhibitory concentration against respiratory syncytial virus was determined.
The subject of experiment [4] is HeLa. Description: Minimum inhibitory concentration against vesicular stomatitis virus was determined.

In the experiment on HeLa [1], `OC[C@@H]1CCCC[C@@H]1N1C=NC2C(Cl)=NC=NC21` (some centres undefined) gave an MCC of 400 µg/mL. The MIC50 in the experiment on HeLa [2] and in the experiment on HeLa [3] was over 80 µg/mL each time.
With `NC1=NC2C(N=CN2[C@H]2CCCC[C@H]2CO)C(Cl)=N1` (some centres undefined), the MCC with HeLa [1] is over 200 µg/mL. Further, the MIC50 is 120 µg/mL (≈ 423 µM) with HeLa [2], over 200 µg/mL in the experiment on HeLa [4] and 8 µg/mL (≈ 28.2 µM) with HeLa [3].
The compound `NC1=NC=NC2C1N=CN2[C@H]1CCCC[C@H]1CO` (some centres undefined) showed an MCC with HeLa [1] of 400 µg/mL. The MIC50 against HeLa [2] was over 80 µg/mL; against HeLa [3], 3.2 µg/mL (≈ 12.8 µM).
The compound `NC(=O)c1ncn([C@@H]2O[C@H](CO)[C@@H](O)[C@H]2O)n1` [RIBAVIRIN] yielded an MCC in the experiment on HeLa [1] of over 400 µg/mL. Moreover, the MIC50 in the experiment on HeLa [2] stood at 48 µg/mL (≈ 197 µM); against HeLa [4] it was 16 µg/mL (≈ 65.5 µM); with HeLa [3] it was 1.92 µg/mL (≈ 7.86 µM).
